The record followed here is ChEMBL document CHEMBL5726780, “Fused tricyclic compounds as Raf kinase inhibitors” (2018).

The assay in a line: Time-Resolved Fluorescence Energy Transfer Assay: Compounds disclosed herein were tested against B-Raf (V600E) (PV3849, from Invitrogen) or C-Raf (Y340D/Y341D) (PV3805, from Invitrogen) in a time-resolved fluorescence energy transfer assay. The assay was carried out in reactions (10 μL) containing 0.0625 nM B-Raf or 0.5 nM C-Raf, 25 mM Tris pH7.4, 10 mM MgCl2, 0.5 mM EGTA, 0.5 mM […], 5 mM beta-glycerophosphate, 0.01% Triton X-100, 2.5 mM DTT, 0.1% BSA, 0.1 mM ATP, 13.7 nM GST-tagged MEK1 (Full-length protein with K97R mutation, recombinant protein purified from bacterial expression system) and 0-5 μM compounds disclosed herein (final concentration of 1% DMSO). The enzyme was incubated with the compounds at room temperature for 60 minutes and the reactions were initiated by the addition of ATP and GST-MEK1. After incubating at room temperature for 60 minutes, an equal volume of stop buffer containing 25 mM Tris pH7.4, 400 mM KF, 50 mM EDTA, 0.01% BSA, 0.01% Triton X-100, 1 test of Eu3+ Cryptate-conjugated rabbit polyclonal antibody anti-Phospho MEK1/2 (Ser217/221) and 1 test of d2-conjugated mouse monoclonal antibody anti-glutathione S-transferase was added to stop the reactions. Plates were sealed and incubated at room temperature for 2 hours, and then the TR-FRET signals were read on BMG PHERAstar FS instrument. (TR-FRET usually uses a lanthanide donor and a delayed reading to cut background.)
As usually defined, the IC50 is the concentration that gives 50% inhibition. Turning to `O=C1CCc2c(Oc3ccc4c(c3)C3C(O4)C3c3nc4ccc(Br)cc4[nH]3)ccnc2N1` (centres undefined), the IC50 is 81 nM.

For the compound `O=C1CCc2c(Oc3ccc4c(c3)C3C(C4)C3C(=O)Nc3ccccc3S)ccnc2N1` (centres undefined), the IC50 turned out to be 5.5 nM.

Turning to `CNC(=O)Nc1cc(Oc2ccc3c(c2)C2C(O3)C2c2nc3ccc(C(F)(F)F)cc3[nH]2)ccn1` (centres undefined), the concentration for half-maximal inhibition (IC50) was 6.5 nM.

With `O=C1CCc2c(Oc3ccc4c(c3)C3C(O4)C3C(=O)OCC(=O)c3ccccc3)ccnc2N1` (centres undefined), the IC50 was under 0.25 nM.
